Assay results reported in patent publication US7790171B1, “Antiviral peptides obtained from the tryptophan-rich hydrophobic cluster of the HIV-1 reverse transcriptase” (priority 2000, dated 2010).
Where no end group is shown, it is not given here.

What was measured:
CEM cells = test: Toxicity in CEM cells; format: cell-based, human
[1] = system: HIV-1 RTMF, HIV-1 RTMC, HIV-1 74V, HIV-1 N119 and HIV-1 RTMDR1; test: β-gal activity assay in MAGIC-5 cells, anti-RT drug resistant HIV-1 strains; format: cell-based; settings: β-gal activity day 3
Experimental: (§1) FIG. 3: Effect of MPG/p7 (SEQ ID NO:1) on replication of reference escape variant viruses. MAGIC-5 cells were incubated with 50 μl of stock HIV preparation corresponding to 1000×TCID50/ml of a, HIV-1 BRU; b, HIV-1 RTMF; c, HIV-1 RTMC; d, HIV-1 74V (FIG. 3.A); e, HIV-1 N119; f, HIV-1 RTMDR1 (FIG. 3.B), in medium alone (lane 2) or medium supplemented with AZT at 10^−5 M, 10^−6 M, 10^−7 M, 10^−8 M, 10^−9 M, and 10^−10 M (lanes 3 to 8 respectively), MPG/p7 at 10^−8 and 10^−7M (lanes 9 and 10), or MPG/p237 at 10^−6M (lane 11) additive. β-gal activity was evaluated on day 3 after virus exposure. β-gal activity in uninfected MAGIC5 cells was measured as control (lane 1). All results have been normalized (see legend of FIG. 2). The calculated values represent means of duplicate. Each figure is representative of at least three independent experiments.
β-gal activity assay. […] After 3 days in culture, cells were lysed and β-gal activity was determined by incubating 200 μl of total cellular extracts for 1 hat 37° C. in 1.5 ml buffer containing 80 mM NA2HPO4, 10 mM MgCl2, 1 mM 2 ME and 6 mM o-nitrophenyl β-D-galactopyranoside (ONPG). β-gal activity was evaluated by measuring absorbance at 410 nm. […]

HIV-2 ROD = test: RT activity assay of viral production in HIV-2 ROD-infected CEM cells; format: cell-based
Experimental: (§2) FIG. 1: Effect of different concentrations of MPG/p7 (SEQ ID NO:1) on HIV-1 and HIV-2 in CEM cell cultures. CEM cells exposed to 100 μl of viral suspensions containing 1000×50% tissue culture infective dose (TCID50)/m1 of HIV-1 BRU (left panels) or HIV-2 ROD (right panels). a, HIV-infected cells were cultured in medium alone (white diamonds) or medium supplemented with MPG/p7 at 10^−7 M (black circles), 10^−8 M, (black up triangles), 10^−9 M (black diamonds), and 10^−10 M (black squares). b, As controls, HIV-infected cells were treated with either azidothymidine (AZT: 10^−5 M) (white squares) or peptide MPG/p237 (SEQ ID NO:5) at 10^−6 M (black down triangles). Viral production was monitored by measuring RT activity twice a week post infection. Culture supernatants from virus-free CEM were tested as a control (white circles, FIG. 1b).
(§3) RI activity assay. CEM cells were incubated for 30 mm at 4° C. with 100 μl of stock HIV preparation corresponding to 1000×50% tissue culture infective dose (TCID50)/ml, then cells were washed five times and cultured at 5×10^5 cell/ml in 24-well microplates in the presence or absence of MPG/p7 (at 10^−8 and 10^−7 M) or AZT (AZT was purchased from Boehringer Mannheim, Germany) additive. Viral production was monitored twice a week by measuring reverse transcriptase activity in 1 ml of cell-free supernatant as previously described (39).

HIV-1 RTMDR1 = test: β-gal activity assay in MAGIC-5 cells, HIV-1 RTMDR1; format: cell-based; settings: FIG. 3f
Experimental: as §1
(§4) β-gal activity assay. […] After 3 days in culture, cells were lysed and β-gal activity was determined by incubating 200 μl of total cellular extracts for 1 hat 37° C. in 1.5 ml buffer containing 80 mM NA2HPO4, 10 mM MgCl2, 1 mM 2 ME and 6 mM o-nitrophenyl β-D-galactopyranoside (ONPG). β-gal activity was evaluated by measuring absorbance at 410 nm.

HIV-1 RTMC = test: β-gal activity assay in MAGIC-5 cells, HIV-1 RTMC; format: cell-based
Experimental: as §1, §4

HIV-1 BRU [2] = test: RT activity assay of viral production in HIV-1 BRU-infected CEM cells; format: cell-based
Experimental: as §2, §3

[3] = biological target: HIV-1 RT dimerization (p66/p51) (Human immunodeficiency virus type 1 group M subtype B, UniProt P03366); settings: cited from earlier work
[4] = system: HIV-1 BRU, RF, SF2, NDK, ELI (clades B and D); test: β-gal activity assay in MAGIC-5 cells, HIV-1 isolates; format: cell-based; settings: MAGIC5 cells, β-gal activity day 3, X4 and R5/X4 strains
Experimental: (§5) FIG. 2: Effect of MPG/p7 (SEQ ID NO:1) on replication of different subtypes of HIV-1 and HIV-2 studied using MAGIC5 cells. MAGIC-5 cells were incubated with 50 μl of stock HIV preparation corresponding to 1000×TCID50/ml. a, HIV-1 BRU; b, HIV-1 RF; c, HIV-1 SF2 (FIG. 2.A); d, HIV-1 NDK; e, HIV-1 ELI; f, HIV-2 ROD; g, HIV-2 EHO (FIG. 2.B) in medium alone (lane 2), medium supplemented with AZT (10^−5 M) (lane 3), MPG/p7 at 10^−7 and 10^−8 M (lane 4 and 5 respectively), or MPG/p237 (SEQ ID NO:5) at 10^−6 M (lane 6) additive. After 3 days in culture, 13-gal activity was evaluated in cell lysates by measuring absorbance at 410 nm. β-gal activity in uninfected MAGIC5 cells was measured as control (lane 1). […] The calculated values represent means of duplicate. […]
as §4
(§6) The efficiency of MPG/p7 monitored using the previously described MAGIC5 transfectant cells that express surface CD4, CXCR4 and CCR5 receptors and contain a reporter gene under control of an HIV-1 promoter that can be induced upon infection of the cells. […]

[5] = system: HIV-2 ROD, EHO (clades A and B); test: β-gal activity assay in MAGIC-5 cells, HIV-2 isolates; format: cell-based; settings: MAGIC5 cells, β-gal activity day 3
Experimental: as §5, §4, §6

HIV-1 BRU [6] = settings: cited from earlier work

KETWETWWTE [p7, KETWETWWTE]
concentrations without any toxicity in CEM cells (CEM cells): below 10^−5 M

MPG/p7: non-covalent complex of peptide p7 (SEQ ID NO:1) with carrier peptide MPG (SEQ ID NO:2) (chain 1 KETWETWWTE; chain 2 GALFLGFLGAAGSTMGAWSQPKSKRKV; also: non-covalent complex of p7 with carrier MPG)
sensitivity of escape mutant viruses to treatment [1]: sensitive
delay in HIV-2 replication (HIV-2 ROD; 10^−9 M of MPG/p7, CEM cells): 3 days
concentrations that strongly delay HIV-2ROD propagation (HIV-2 ROD; RT activity in supernatant, CEM cells): above 10^−7 M
concentration required to inhibit HIV-1 RTMDR1 relative to other viruses (HIV-1 RTMDR1): higher than that required to block the other viruses
concentration required to inhibit HIV-1 RTMC relative to other viruses (HIV-1 RTMC; FIG. 3c): higher than that required to block the other viruses
concentration required to completely inhibit HIV-1 RTMC (HIV-1 RTMC; data not shown): 10^−6 M
effect on HIV-1BRU replication at 10^−9 M (HIV-1 BRU [2]; 10^−9 M, RT activity at the end of culture (day 17), CEM cells): very slow virus propagation
delay in HIV-1 replication (HIV-1 BRU [2]; 10^−10 M of MPG/p7, CEM cells): 3 days
concentration that abolishes the production of viral particles (HIV-1 BRU [2]; HIV-1 BRU-infected cultured CEM cells): 10^−8 M
concentrations that totally inhibit HIV-1BRU replication (HIV-1 BRU [2]; RT activity in cell free supernatant, 17 days of incubation, CEM cells): above 10^−8 M
inhibition of HIV-1BRU RT dimerization in vitro (previously shown) [3]: inhibit
concentration at which all HIV-1 strains tested were susceptible [4]: 10^−8 M
concentration at which all HIV-2 strains tested were susceptible [5]: 10^−8 M
inhibition of HIV-1BRU replication in CEM cell culture (previously shown) (HIV-1 BRU [6]): inhibit
